Data from article PMC2248166, “Quantitative peptide binding motifs for 19 human and mouse MHC class I molecules derived using positional scanning combinatorial peptide libraries” (Immunome Research, 2008).
Where a SMILES comes first, the peptide text is derived from it.

Legend:
Assay in all cases: biochemical
Type in all cases: binding
HLA A*3001 = HLA A*3001 (Homo sapiens, UniProt P04439, D140H/D185E/E176W/F33S/G80R/H175R/K168Q/R138E/R41S)
HLA B*1501 = HLA B*1501 (Homo sapiens, UniProt P01889, A329T/A93T/A95T/C349S/D201E/D98Y/E187L/E204Q/E69M/E70A/K202T/N87E/Q94N/R155S/R180W/S121R/S35A/S48A/V306I/V36M/Y140S/Y91S)
HLA B*1503 = HLA B*1503 (Homo sapiens, UniProt P01889, A329T/A93T/A95T/C349S/D201E/D98Y/E187L/E204Q/K202T/N87E/Q94N/R155S/R180L/S121R/S35A/V306I/V36M/Y140S/Y91S)
HLA A*3201 = HLA A*3201 (Homo sapiens, UniProt P04439, A270S/D101S/D185E/E176V/E277Q/F133L/G103R/G107R/G231S/H175R/I121M/I218V/I322F/K168Q/L105A/L300P/L318F/M331R/P208A/P217A/Q94H/R106L/R138Q/S129P/T104I/T323A/T345S/V100E/V321M/V358M)

HLA A*3001, sequence (P04439 25-365 limits assumed, stated change not applied): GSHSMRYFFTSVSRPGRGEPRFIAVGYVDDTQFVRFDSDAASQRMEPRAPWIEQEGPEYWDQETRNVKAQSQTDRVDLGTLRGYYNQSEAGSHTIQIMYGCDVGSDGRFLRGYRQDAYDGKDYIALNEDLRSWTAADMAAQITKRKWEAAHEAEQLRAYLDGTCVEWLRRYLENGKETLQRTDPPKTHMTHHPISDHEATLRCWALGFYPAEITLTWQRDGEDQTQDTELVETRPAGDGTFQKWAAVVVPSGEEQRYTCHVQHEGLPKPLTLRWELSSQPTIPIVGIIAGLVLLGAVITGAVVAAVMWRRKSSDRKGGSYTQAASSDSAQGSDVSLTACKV

| Compound | IC50 (HLA A*3201) | further results |
| --- | --- | --- |
| CC[C@H](C)[C@H](NC(=O)[C@H](Cc1ccc(O)cc1)NC(=O)[C@H](C)NC(=O)[C@H](C)NC(=O)[C@H](Cc1c[nH]cn1)NC(=O)[C@H](CO)NC(=O)[C@@H](N)CCCCN)C(=O)N[C@@H](CC(=O)O)C(=O)N[C@@H](Cc1ccc(O)cc1)C(=O)O [3102.0209] (H-KSHAAYIDY-OH) |  | IC50 (HLA A*3001): 12 nM; IC50 (HLA B*1501): 1.8 nM; IC50 (HLA B*1503): 1.7 nM |
| CC(C)C[C@H](NC(=O)[C@@H](NC(=O)[C@H](CO)NC(=O)[C@H](CCCCN)NC(=O)[C@@H](NC(=O)[C@@H](N)Cc1c[nH]cn1)C(C)C)[C@@H](C)O)C(=O)N[C@@H](CC(N)=O)C(=O)N[C@@H](CC(N)=O)C(=O)N[C@@H](C)C(=O)O [3102.0217] (H-HVKSTLNNA-OH) |  | IC50 (HLA A*3001): 1.2 nM; IC50 (HLA B*1501): 367 nM |
| CC[C@H](C)[C@H](NC(=O)[C@H](CO)NC(=O)[C@@H](N)CCCCN)C(=O)N[C@@H](CCC(=O)O)C(=O)N[C@@H](CCC(N)=O)C(=O)N[C@@H](Cc1c[nH]cn1)C(=O)N1CCC[C@H]1C(=O)N[C@H](C(=O)N[C@H](C(=O)O)C(C)C)C(C)C [3102.0246] (H-KSIEQHPVV-OH) |  | IC50 (HLA A*3001): 2.7 nM; IC50 (HLA B*1501): 71 nM |
| CC[C@H](C)[C@H](NC(=O)[C@H](Cc1ccccc1)NC(=O)[C@H](CC(C)C)NC(=O)[C@@H](NC(=O)[C@@H](N)CC(C)C)[C@@H](C)CC)C(=O)N[C@@H](CO)C(=O)N[C@H](C(=O)N1CCC[C@H]1C(=O)N[C@@H](Cc1ccccc1)C(=O)O)[C@@H](C)CC [3102.0290] (H-LILFISIPF-OH) | 25 nM |  |
| CC[C@H](C)[C@H](NC(=O)[C@H](CCCCN)NC(=O)[C@H](Cc1ccccc1)NC(=O)[C@H](CCSC)NC(=O)[C@@H](N)[C@@H](C)O)C(=O)N[C@H](C(=O)N[C@@H](Cc1ccc(O)cc1)C(=O)N[C@@H](CO)C(=O)N[C@@H](CC(C)C)C(=O)O)C(C)C [3102.0291] (H-TMFKIVYSL-OH) | 0.92 nM |  |
| CC(C)C[C@H](NC(=O)[C@@H](NC(=O)[C@H](Cc1ccc(O)cc1)NC(=O)[C@H](CCCNC(=N)N)NC(=O)[C@H](CC(C)C)NC(=O)[C@H](CCC(=O)O)NC(=O)[C@H](Cc1ccc(O)cc1)NC(=O)[C@@H](NC(=O)[C@@H](N)C(C)C)[C@@H](C)O)[C@@H](C)O)C(=O)O [3102.0294] (H-VTYELRYTL-OH) | 12 nM |  |
| CC(C)C[C@H](NC(=O)CNC(=O)[C@H](C)NC(=O)[C@@H](NC(=O)[C@H](C)N)[C@@H](C)O)C(=O)N[C@@H](Cc1c[nH]cn1)C(=O)N[C@@H](CC(C)C)C(=O)NCC(=O)N[C@@H](Cc1ccccc1)C(=O)O [3102.0295] (H-ATAGLHLGF-OH) | 1.7 nM |  |
| CC[C@H](C)[C@H](NC(=O)[C@H](Cc1ccccc1)NC(=O)[C@@H](NC(=O)[C@H](CCC(N)=O)NC(=O)[C@@H](N)CCCNC(=N)N)[C@@H](C)CC)C(=O)N[C@@H](Cc1c[nH]cn1)C(=O)N[C@@H](Cc1ccc(O)cc1)C(=O)N[C@@H](CO)C(=O)N[C@H](C(=O)O)C(C)C [3102.0296] (H-RQIFIHYSV-OH) | 1 nM |  |
| CC[C@H](C)[C@H](NC(=O)[C@@H](NC(=O)[C@H](CC(C)C)NC(=O)[C@H](CO)NC(=O)[C@H](CCC(N)=O)NC(=O)[C@H](Cc1ccccc1)NC(=O)[C@H](CC(=O)O)NC(=O)[C@H](CCC(N)=O)NC(=O)[C@H](C)N)[C@@H](C)O)C(=O)O [3102.0299] (H-AQDFQSLTI-OH) | 68 nM |  |
| CC[C@H](C)[C@H](N)C(=O)N[C@@H](CC(C)C)C(=O)N[C@@H](Cc1ccc(O)cc1)C(=O)N[C@@H](Cc1ccc(O)cc1)C(=O)N[C@@H](CC(C)C)C(=O)N[C@@H](CO)C(=O)N[C@@H](C)C(=O)N[C@@H](CCCCN)C(=O)N[C@H](C(=O)O)[C@@H](C)CC [3102.0300] (H-ILYYLSAKI-OH) | 8.9 nM |  |
| CC(C)C[C@H](NC(=O)[C@H](Cc1ccc(O)cc1)NC(=O)[C@H](CC(N)=O)NC(=O)[C@H](Cc1ccccc1)NC(=O)[C@H](Cc1c[nH]c2ccccc12)NC(=O)[C@H](CC(C)C)NC(=O)[C@H](CC(C)C)NC(=O)[C@@H](N)CC(C)C)C(=O)N[C@@H](Cc1ccccc1)C(=O)O [3102.0301] (H-LLLWFNYLF-OH) | 1.5 nM |  |
| CC[C@H](C)[C@H](NC(=O)[C@H](Cc1ccccc1)NC(=O)[C@@H](NC(=O)[C@@H](NC(=O)[C@@H](N)CO)[C@@H](C)CC)[C@@H](C)CC)C(=O)N[C@@H](CC(N)=O)C(=O)N[C@@H](Cc1ccc(O)cc1)C(=O)N[C@H](C(=O)N[C@@H](CCSC)C(=O)O)[C@@H](C)O [3102.0303] (H-SIIFINYTM-OH) | 6.5 nM |  |
| CC[C@H](C)[C@H](NC(=O)[C@H](CO)NC(=O)[C@H](CO)NC(=O)[C@@H](NC(=O)[C@H](CO)NC(=O)[C@H](Cc1ccccc1)NC(=O)[C@@H](NC(=O)[C@@H](N)CO)[C@@H](C)O)[C@@H](C)CC)C(=O)N[C@@H](Cc1ccccc1)C(=O)O [3102.0305] (H-STFSISSIF-OH) | 1.1 nM |  |
| CC[C@H](C)[C@H](NC(=O)[C@@H](NC(=O)[C@H](Cc1ccccc1)NC(=O)[C@H](Cc1ccccc1)NC(=O)[C@H](CC(C)C)NC(=O)[C@H](Cc1ccccc1)NC(=O)[C@H](CC(=O)O)NC(=O)[C@@H](NC(=O)[C@@H](N)CCCCN)[C@@H](C)CC)[C@@H](C)CC)C(=O)O [3102.0306] (H-KIDFLFFII-OH) | 2 nM |  |
| C[C@@H](O)[C@H](NC(=O)[C@H](CCCNC(=N)N)NC(=O)[C@H](CC(N)=O)NC(=O)[C@H](Cc1ccccc1)NC(=O)[C@@H](NC(=O)[C@@H](N)CCCNC(=N)N)[C@@H](C)O)C(=O)N[C@@H](Cc1c[nH]cn1)C(=O)N[C@@H](Cc1ccc(O)cc1)C(=O)N[C@@H](Cc1c[nH]c2ccccc12)C(=O)O [3102.0309] (H-RTFNRTHYW-OH) | 0.24 nM |  |
| CC[C@H](C)[C@H](NC(=O)[C@H](CO)NC(=O)[C@H](CCC(N)=O)NC(=O)[C@H](CCC(N)=O)NC(=O)[C@H](CC(C)C)NC(=O)[C@H](Cc1ccccc1)NC(=O)[C@H](CC(C)C)NC(=O)[C@@H](NC(=O)[C@@H](N)CCCCN)C(C)C)C(=O)O [3102.0312] (H-KVLFLQQSI-OH) | 0.7 nM |  |
| CC[C@H](C)[C@H](NC(=O)[C@@H](N)CO)C(=O)N[C@@H](Cc1ccc(O)cc1)C(=O)NCC(=O)N[C@@H](Cc1ccccc1)C(=O)NCC(=O)N[C@H](C(=O)N[C@H](C(=O)N[C@@H](Cc1ccccc1)C(=O)O)[C@@H](C)O)C(C)C [3102.0314] (H-SIYGFGVTF-OH) | 0.11 nM |  |
| CSCC[C@H](NC(=O)[C@H](CCCCN)NC(=O)[C@H](CC(N)=O)NC(=O)[C@H](CC(C)C)NC(=O)[C@@H](N)CCCCN)C(=O)N[C@H](C(=O)N[C@H](C(=O)N[C@@H](CCC(=O)O)C(=O)N[C@@H](CC(C)C)C(=O)O)C(C)C)[C@@H](C)O [3102.0316] (H-KLNKMTVEL-OH) | 1.7 nM |  |
| CC[C@H](C)[C@H](NC(=O)[C@@H](NC(=O)[C@@H](NC(=O)[C@H](Cc1ccccc1)NC(=O)[C@H](Cc1ccccc1)NC(=O)[C@@H](NC(=O)[C@H](CC(C)C)NC(=O)[C@@H](NC(=O)[C@@H](N)CO)[C@@H](C)O)[C@@H](C)CC)C(C)C)[C@@H](C)CC)C(=O)O [3102.0317] (H-STLIFFVII-OH) | 18 nM |  |
| CC(C)[C@H](NC(=O)CNC(=O)[C@H](Cc1ccc(O)cc1)NC(=O)[C@@H](NC(=O)[C@@H](N)CCCNC(=N)N)[C@@H](C)O)C(=O)N[C@@H](CC(N)=O)C(=O)N[C@@H](Cc1ccc(O)cc1)C(=O)N[C@H](C(=O)N[C@@H](Cc1ccccc1)C(=O)O)[C@@H](C)O [3102.0318] (H-RTYGVNYTF-OH) | 0.26 nM |  |
| CC[C@H](C)[C@H](NC(=O)[C@H](C)NC(=O)[C@H](CC(N)=O)NC(=O)[C@@H](NC(=O)[C@@H]1CCCN1C(=O)[C@H](CCC(=O)O)NC(=O)[C@@H](NC(=O)[C@H](CC(C)C)NC(=O)[C@@H](N)CCCCN)[C@@H](C)CC)C(C)C)C(=O)O [3102.0321] (H-KLIEPVNAI-OH) | 11 nM |  |
| CC[C@H](C)[C@H](NC(=O)[C@H](CCC(=O)O)NC(=O)[C@H](Cc1ccccc1)NC(=O)[C@H](CO)NC(=O)[C@@H](N)CCCNC(=N)N)C(=O)N[C@H](C(=O)N[C@@H](CC(N)=O)C(=O)N[C@H](C(=O)N[C@@H](CC(C)C)C(=O)O)C(C)C)[C@@H](C)CC [3102.0322] (H-RSFEIINVL-OH) | 2.9 nM |  |
| CC[C@H](C)[C@H](NC(=O)[C@H](CCCNC(=N)N)NC(=O)[C@H](CCC(N)=O)NC(=O)[C@H](C)NC(=O)[C@@H](NC(=O)[C@H](CC(N)=O)NC(=O)[C@H](Cc1ccccc1)NC(=O)[C@H](CC(C)C)NC(=O)[C@@H](N)CCCCN)[C@@H](C)CC)C(=O)O [3102.0323] (H-KLFNIAQRI-OH) | 1.6 nM |  |
| CC[C@H](C)[C@H](NC(=O)[C@H](CC(N)=O)NC(=O)[C@H](CC(C)C)NC(=O)[C@@H](NC(=O)[C@@H](N)C(C)C)[C@@H](C)O)C(=O)N[C@@H](CO)C(=O)N[C@@H](CO)C(=O)N[C@@H](CCCCN)C(=O)N[C@@H](Cc1ccccc1)C(=O)O [3102.0324] (H-VTLNISSKF-OH) | 11 nM |  |
| CC[C@H](C)[C@H](N)C(=O)N[C@H](C(=O)N[C@@H](CC(N)=O)C(=O)N[C@@H](CCCCN)C(=O)N[C@@H](Cc1ccccc1)C(=O)N[C@@H](Cc1ccccc1)C(=O)N[C@@H](CCC(=O)O)C(=O)N[C@H](C(=O)N[C@H](C(=O)O)[C@@H](C)CC)C(C)C)[C@@H](C)CC [3102.0325] (H-IINKFFEVI-OH) | 11 nM |  |
| CC[C@H](C)[C@H](NC(=O)[C@H](CC(C)C)NC(=O)[C@H](C)NC(=O)[C@@H](NC(=O)[C@H](C)N)[C@@H](C)O)C(=O)N[C@@H](CC(C)C)C(=O)N[C@H](C(=O)N[C@@H](CO)C(=O)N[C@@H](Cc1ccccc1)C(=O)O)C(C)C [3102.0327] (H-ATALILVSF-OH) | 1.4 nM |  |
